Target: T1, GST-tagged truncated human mutant G2019S LRRK2 (Homo sapiens, UniProt Q5S007, G2019S)
T1 construct: GST-tagged truncated human mutant G2019S LRRK2; purchased Life Technologies Corporation (Carlsbad, CA)
Test: LRRK2 G2019S Km ATP LanthaScreen assay
Type: biochemical
Conditions: 134 μM ATP (Km ATP), LRRKtide substrate, mean of several tests
Summary of the method: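 IC50 values are means of repeat runs, fitted with a 4-parameter logistic to the 520/495 nm TR-FRET ratio from a Tb-labeled anti-phospho-LRRKtide antibody added with EDTA. Reactions ran 90 min at room temperature at Km ATP (134 μM) with fluorescein-LRRKtide, after 15-min compound preincubation with truncated GST-tagged G2019S LRRK2.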

T1 sequence (Q5S007 970-2527 G2019S limits assumed): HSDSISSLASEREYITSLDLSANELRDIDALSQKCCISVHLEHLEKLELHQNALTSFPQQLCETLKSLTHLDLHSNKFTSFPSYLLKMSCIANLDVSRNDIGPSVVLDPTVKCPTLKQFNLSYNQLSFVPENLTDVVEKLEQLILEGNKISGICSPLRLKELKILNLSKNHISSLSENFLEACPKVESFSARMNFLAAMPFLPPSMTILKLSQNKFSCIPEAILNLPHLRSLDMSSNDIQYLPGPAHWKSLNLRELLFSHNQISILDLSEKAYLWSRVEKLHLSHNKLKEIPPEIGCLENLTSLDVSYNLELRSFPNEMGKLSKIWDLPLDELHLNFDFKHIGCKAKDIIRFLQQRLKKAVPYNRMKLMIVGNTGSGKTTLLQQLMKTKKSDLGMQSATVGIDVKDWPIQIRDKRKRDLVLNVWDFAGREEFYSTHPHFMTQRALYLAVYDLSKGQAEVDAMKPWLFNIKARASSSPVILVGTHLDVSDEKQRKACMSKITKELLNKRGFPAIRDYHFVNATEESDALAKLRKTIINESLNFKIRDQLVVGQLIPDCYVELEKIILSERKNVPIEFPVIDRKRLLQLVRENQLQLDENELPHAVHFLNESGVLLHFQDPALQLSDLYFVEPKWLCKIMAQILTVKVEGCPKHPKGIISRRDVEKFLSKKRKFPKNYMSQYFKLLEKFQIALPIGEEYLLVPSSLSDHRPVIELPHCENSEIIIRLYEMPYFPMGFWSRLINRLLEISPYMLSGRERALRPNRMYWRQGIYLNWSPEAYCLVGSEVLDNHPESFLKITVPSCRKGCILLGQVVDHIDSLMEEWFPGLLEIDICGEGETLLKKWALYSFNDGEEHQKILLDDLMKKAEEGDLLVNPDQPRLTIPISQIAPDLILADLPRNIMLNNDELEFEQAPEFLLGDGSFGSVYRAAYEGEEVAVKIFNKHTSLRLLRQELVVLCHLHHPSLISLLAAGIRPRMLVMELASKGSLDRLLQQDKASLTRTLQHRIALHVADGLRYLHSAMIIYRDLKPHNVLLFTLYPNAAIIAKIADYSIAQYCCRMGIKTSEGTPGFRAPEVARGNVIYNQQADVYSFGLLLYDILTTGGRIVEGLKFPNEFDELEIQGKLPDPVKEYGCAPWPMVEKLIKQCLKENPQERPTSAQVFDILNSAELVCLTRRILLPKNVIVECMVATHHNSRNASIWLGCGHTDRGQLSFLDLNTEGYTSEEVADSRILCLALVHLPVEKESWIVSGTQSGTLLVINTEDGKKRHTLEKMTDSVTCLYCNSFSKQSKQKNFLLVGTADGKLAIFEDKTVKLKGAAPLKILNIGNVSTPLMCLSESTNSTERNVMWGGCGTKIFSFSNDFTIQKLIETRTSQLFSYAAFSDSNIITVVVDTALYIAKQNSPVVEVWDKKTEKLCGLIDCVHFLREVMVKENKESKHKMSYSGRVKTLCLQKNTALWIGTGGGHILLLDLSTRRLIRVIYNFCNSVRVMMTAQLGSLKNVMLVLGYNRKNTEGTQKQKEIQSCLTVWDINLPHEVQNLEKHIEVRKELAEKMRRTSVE

**Q.** With `CN1CCN(c2cc3cc(NC(=O)C4CC4)ncc3cc2Cl)CC1` [Ex-8.2] as the compound, how does the “LRRK2 pIC50” value read?
**A.** Its value is 7.53.

**Q.** For `CC1(N2CCN(c3cc4cc(NC(=O)C5CCCO5)ncc4cc3Cl)CC2)COCC1O` (stereo not shown) [Ex-9.4], which “LRRK2 pIC50” value is on record?
**A.** The value was 8.40.

**Q.** With `CC1(N2CCN(c3cc4cc(NC(=O)C5CCOCC5)ncc4cc3Cl)CC2)COCC1O` (stereo not shown) [Ex-9.2] as the compound, how does the “LRRK2 pIC50” value read?
**A.** The value was 8.74.

Same assay, conditions: 134 μM ATP (Km ATP), LRRKtide substrate, mean of several tests, read-out: LRRK2 pIC50 (converted)

**Q.** With `CC1(N2CCN(c3cc4cc(NC(=O)C5CC56CCCOC6)ncc4cc3Cl)CC2)COCC1O` (single isomer, unassigned) [Ex-1.16, (1R,3S, or 1R,3R, or 1S,3S, or 1S,3R)-N-(7-chloro-6-(4-((3R,4R or 3S,4S)-4-hydroxy-3-methyltetrahydrofuran-3-yl)piperazin-1-yl)isoquinolin-3-yl)-5-oxaspiro[2.5]octane-1-carboxamide] as the compound, how does the IC50 read?
**A.** Its IC50 is 112 nM.

**Q.** For `N#CC1CCN(c2cc3cc(NC(=O)C4CC4c4cncnc4)ncc3cc2Cl)CC1` (single isomer, unassigned) [Ex-5.17], which IC50 is on record?
**A.** The IC50 was 0.0813 nM.

**Q.** Which IC50 does the source give for `CC1(N2CCN(c3cc4cc(NC(=O)C5CC56CC6)ncc4cc3Cl)CC2)COCC1O` (single isomer, unassigned) [Ex-2.14, (R or S)-N-(7-chloro-6-(4-((3R,4R or 3S,4S)-4-hydroxy-3-methyltetrahydrofuran-3-yl)piperazin-1-yl)isoquinolin-3-yl)spiro[2.2]pentane-1-carboxamide] here?
**A.** The IC50 was 0.468 nM.

**Q.** `CCC1C(C(=O)Nc2cc3cc(N4CCN(C5(C)COCC5F)CC4)c(Cl)cc3cn2)C1c1ccccn1` (single isomer, unassigned) [Ex-10.90, (1R,2R,3R, or 1R,2S,3R, or 1S,2R,3S, or 1S,2S,3S)-N-[7-chloro-6-[4-((3R,4R or 3S,4S)-4-fluoro-3-methyl-tetrahydrofuran-3-yl)piperazin-1-yl]-3-isoquinolyl]-2-ethyl-3-(2-pyridyl)cyclopropanecarboxamide] was tested. Which IC50 did it give?
**A.** The IC50 was 2.04 nM.

**Q.** Which IC50 does the source give for `CC1(C#N)CCN(c2cc3cc(NC(=O)C4CC4c4cncnc4)ncc3cc2Cl)CC1` (single isomer, unassigned) [Ex-5.16] here?
**A.** Its IC50 is 427 nM.

**Q.** Which IC50 does the source give for `Cc1cc2cnc(NC(=O)C3CC34CCOCC4)cc2cc1N1CCN(C2(C)COCC2O)CC1` (single isomer, unassigned) [Ex-6.1] here?
**A.** The IC50 was 0.355 nM.

**Q.** For `COC1COCC1N1CCN(c2cc3cc(NC(=O)C4CC45CCOCC5)ncc3cc2Cl)CC1` (single isomer, unassigned) [Ex-5.7], which IC50 is on record?
**A.** The IC50 was 2.63 nM.

**Q.** Which IC50 does the source give for `CC1(N2CCN(c3cc4cc(NC(=O)C5CC56CCOC6)ncc4cc3Cl)CC2)COCC1O` (single isomer, unassigned) [Ex-2.11, (1R,3R or 1S,3S)-N-(7-chloro-6-(4-((3R,4R or 3S,4S)-4-hydroxy-3-methyltetrahydrofuran-3-yl)piperazin-1-yl)isoquinolin-3-yl)-5-oxaspiro[2.4]heptane-1-carboxamide] here?
**A.** Its IC50 is 1.45 nM.

**Q.** How did the IC50 turn out when `CC1(N2CCN(c3cc4cc(NC(=O)C5CC56CCOCC6)ncc4cc3Cl)CC2)CCOC1` (single isomer, unassigned) [Ex-5.13] was run?
**A.** Its IC50 is 83.2 nM.

**Q.** Which IC50 does the source give for `CC1(N2CCN(c3cc4cc(NC(=O)C5CC56CCOCC6)ncc4cc3Cl)CC2)COCC1O` (single isomer, unassigned) [Ex-2.1, (R or S)-N-(7-chloro-6-(4-((3R,4R or 3S,4S)-4-hydroxy-3-methyltetrahydrofuran-3-yl)piperazin-1-yl)isoquinolin-3-yl)-6-oxaspiro[2.5]octane-1-carboxamide] here?
**A.** Its IC50 is 0.389 nM.

**Q.** How did the IC50 turn out when `CC1(N2CCN(c3cc4cc(NC(=O)C5C6COCC65)ncc4cc3Cl)CC2)COCC1O` (single isomer, unassigned) [Ex-1.9, (1R or S)-N-(7-chloro-6-(4-((3R,4R or 3S,4S)-4-hydroxy-3-methyltetrahydrofuran-3-yl)piperazin-1-yl)isoquinolin-3-yl)-3-oxabicyclo[3.1.0]hexane-6-carboxamide] was run?
**A.** The IC50 was 0.794 nM.

**Q.** For `CC1(N2CCN(c3cc4cc(NC(=O)C5CC56CC6(F)F)ncc4cc3Cl)CC2)COCC1O` (single isomer, unassigned) [Ex-3.1, (1R,3R or 1R,3S, 1S,3R, 1S,3S)-N-(7-chloro-6-(4-((3R,4R or 3S,4S)-4-hydroxy-3-methyltetrahydrofuran-3-yl)piperazin-1-yl)isoquinolin-3-yl)-4,4-difluorospiro[2.2]pentane-1-carboxamide], which IC50 is on record?
**A.** Its IC50 is 0.977 nM.

**Q.** How did the IC50 turn out when `Cc1cc2cnc(NC(=O)C3C(C)C3c3cnn(C)c3)cc2cc1N1CCN(C2(C)CCOC2)CC1` (single isomer, unassigned) [Ex-9.15] was run?
**A.** The IC50 was 0.316 nM.

**Q.** `CCC1C(C(=O)Nc2cc3cc(N4CCN(C5(C)COCC5F)CC4)c(C)cc3cn2)C1c1cnn(C)c1` (stereo not shown) [Ex-9.20] was tested. Which IC50 did it give?
**A.** Its IC50 is 0.0813 nM.

**Q.** `C[C@H]1CN(C2(C)COCC2O)CCN1c1cc2cc(NC(=O)C3CC34CCOCC4)ncc2cc1Cl` (single isomer, unassigned) [Ex-14.1, N-(7-chloro-6-((2R or 2S)-4-(4-(3R,4R or 3S,4S)-hydroxy-3-methyltetrahydrofuran-3-yl)-2-methylpiperazin-1-yl)isoquinolin-3-yl)-6-oxaspiro[2.5]octane-1-carboxamide] was tested. Which IC50 did it give?
**A.** The IC50 was 87.1 nM.

**Q.** For `CC1(N2CCN(c3cc4cc(NC(=O)C5CC5)ncc4cc3F)CC2)COCC1O` (single isomer, unassigned) [Ex-1.5, (3R,4R or 3S,4S)-N-(7-fluoro-6-(4-(4-hydroxy-3-methyltetrahydrofuran-3-yl)piperazin-1-yl)isoquinolin-3-yl)cyclopropanecarboxamide], which IC50 is on record?
**A.** The IC50 was 7.08 nM.

**Q.** How did the IC50 turn out when `CC1(N2CCN(c3cc4cc(NC(=O)C5CC56CCOCC6)ncc4cc3Cl)CC2)CCOC1` (single isomer, unassigned) [Ex-5.11] was run?
**A.** Its IC50 is 2.45 nM.

**Q.** For `CC1C(C(=O)Nc2cc3cc(N4CCN(C5(C)CCOC5)CC4)c(Cl)cc3cn2)C1c1cnn(C)c1` (stereo not shown) [Ex-9.6], which IC50 is on record?
**A.** Its IC50 is 1 nM.

**Q.** Which IC50 does the source give for `Cc1cc2cnc(NC(=O)C3CC3c3cnn(C)c3C(F)(F)F)cc2cc1N1CCN(C2(C)CCOC2)CC1` (single isomer, unassigned) [Ex-10.34, (1R,2R or 1S,2S)-N-[7-methyl-6-[4-((R or S)-3-methyltetrahydrofuran-3-yl)piperazin-1-yl]-3-isoquinolyl]-2-[1-methyl-5-(trifluoromethyl)pyrazol-4-yl]cyclopropanecarboxamide] here?
**A.** The IC50 was 69.2 nM.

**Q.** With `CC12CC(C(=O)Nc3cc4cc(N5CCN(C6(C)COCC6O)CC5)c(Cl)cc4cn3)(CO1)C2` (single isomer, unassigned) [Ex-2.18, N-(7-chloro-6-(4-((3R,4R or 3S,4S)-4-hydroxy-3-methyltetrahydrofuran-3-yl)piperazin-1-yl)isoquinolin-3-yl)-1-methyl-2-oxabicyclo[2.1.1]hexane-4-carboxamide] as the compound, how does the IC50 read?
**A.** The IC50 was 15.5 nM.

**Q.** How did the IC50 turn out when `COC1CC(C(=O)Nc2cc3cc(N4CCN(C5(C)COCC5O)CC4)c(Cl)cc3cn2)C1` (single isomer, unassigned) [Ex-7.2] was run?
**A.** Its IC50 is 0.977 nM.

**Q.** Which IC50 does the source give for `CC1C(C(=O)Nc2cc3cc(N4CCN(C5(C)COCC5F)CC4)c(Cl)cc3cn2)C1c1ccn(C)n1` (single isomer, unassigned) [Ex-10.16] here?
**A.** Its IC50 is 7.94 nM.

**Q.** For `Cc1cc2cnc(NC(=O)C3CC3c3cnn(C)c3C(F)(F)F)cc2cc1N1CCN(C2(C)CCOC2)CC1` (single isomer, unassigned) [Ex-10.36, (1R,2R or 1S,2S)-N-[7-methyl-6-[4-((R or S)-3-methyltetrahydrofuran-3-yl)piperazin-1-yl]-3-isoquinolyl]-2-[1-methyl-5-(trifluoromethyl)pyrazol-4-yl]cyclopropanecarboxamide], which IC50 is on record?
**A.** The IC50 was 107 nM.

**Q.** Which IC50 does the source give for `CC1(C)C(C(=O)Nc2cc3cc(N4CCN(C5(C)COCC5O)CC4)c(Cl)cc3cn2)C1C1CCCCO1` (single isomer, unassigned) [Ex-10.91, (1R,2R,3R, 1R,2S,3R, or 1S,2R,3S, or 1S,2S,3S)-N-[7-chloro-6-[4-((3R,4R or 3S,4S)-4-hydroxy-3-methyl-tetrahydrofuran-3-yl)piperazin-1-yl]-3-isoquinolyl]-2,2-dimethyl-3-tetrahydropyran-2-yl-cyclopropanecarboxamide] here?
**A.** The IC50 was 0.0813 nM.

**Q.** Which IC50 does the source give for `CC1(C)OCCC1C(=O)Nc1cc2cc(N3CCN(C4(C)COCC4O)CC3)c(Cl)cc2cn1` (single isomer, unassigned) [Ex-1.24, (R or S)-N-(7-chloro-6-(1-((3R,4R or 3S,4S)-4-hydroxy-3-methyltetrahydrofuran-3-yl)piperazin-4-yl)isoquinolin-3-yl)-2,2-dimethyltetrahydrofuran-3-carboxamide] here?
**A.** The IC50 was 69.2 nM.

**Q.** For `Cn1ncc(C2CC2C(=O)Nc2cc3cc(N4CCN(C5(C)COCC5F)CC4)c(Cl)cc3cn2)c1C(F)(F)F` (single isomer, unassigned) [Ex-10.62, (1R,2R or 1S,2S)-N-[7-chloro-6-[4-((3R,4R or 3S,4S)-4-fluoro-3-methyl-tetrahydrofuran-3-yl)piperazin-4-ium-1-yl]-3-isoquinolyl]-2-[1-methyl-5-(trifluoromethyl)pyrazol-4-yl]cyclopropanecarboxamide], which IC50 is on record?
**A.** The IC50 was 0.0813 nM.

**Q.** With `CC1(C2CCOC2)CC1C(=O)Nc1cc2cc(N3CCN(C4(C)COCC4O)CC3)c(Cl)cc2cn1` (single isomer, unassigned) [Ex-10.85, (1R,2R or 1S,2S, or 1R,2S, or 1S,2R)-N-[7-chloro-6-[4-((3R,4R or 3S,4S)-4-hydroxy-3-methyl-tetrahydrofuran-3-yl)piperazin-1-yl]-3-isoquinolyl]-2-methyl-2-tetrahydrofuran-3-yl-cyclopropanecarboxamide] as the compound, how does the IC50 read?
**A.** The IC50 was 0.0813 nM.

**Q.** For `O=C(Nc1cc2cc(N3CCN(C4COCC4O)CC3)c(Cl)cc2cn1)C1CC1` (single isomer, unassigned) [Ex-1.4, (3R,4R or 3S,4S)-N-(7-chloro-6-(4-(4-hydroxytetrahydrofuran-3-yl)piperazin-1-yl)isoquinolin-3-yl)cyclopropanecarboxamide], which IC50 is on record?
**A.** Its IC50 is 57.5 nM.

Source: patent publication US12516039B2, “N-linked isoquinoline amides as LRRK2 inhibitors, pharmaceutical compositions, and uses thereof” (Merck Sharp & Dohme LLC, priority 2020, dated 2026)
